According to US20060002946A1, “Targeted immunogens” (Aventis Pasteur, Inc., priority 2003, published 2006):

Assays:
[1] = tested on: HLA-A2/K^b transgenic mice; test: s.c. immunization without adjuvant, CTL assay (FIG. 3B); type: in vivo, mouse; conditions: 100 μg s.c. plus T-helper peptide, no adjuvant, boosts days 14 and 28
Text: Mice were similarly boosted on days 14 and 28. […] Average responses from each group are shown.

[2] = tested on: HLA-A2/K^b transgenic mice; conditions: 100 μg s.c. plus T-helper peptide, no adjuvant, boosts days 14 and 28
Text: Mice were similarly boosted on days 14 and 28. On day 42, splenocytes (2 mice per group) were individually restimulated in vitro for 6 days with the appropriate wild type peptide, and then tested for either IFN-γ secretion by ELISPOT (FIG. 3A) or CTL assay (FIG. 3B) using peptide-pulsed C1R-A2 cells. On day 57, the remaining mice in each group were similarly tested. Average responses from each group are shown.

[3] = tested on: HLA-A2/Kb transgenic mice; test: s.c. peptide immunization, gp100-154 CTL chromium release (FIG. 5); conditions: 50 ug s.c., boosts days 21 and 42, day 63
Procedure: CTL responses in HLA-A2/Kb transgenic mice following subcutaneous (s.c.) injection of peptide. Mice were immunized s.c. with 50 ug of the indicated peptides and boosted on days 21 and 42 following the first injection. Splenocytes from immunized animals were harvested on day 63 post immunization, re-stimulated with the native gp100-154 peptide for 5 days, and tested for CTL activity in a standard chromium release assay using target cells pulsed with gp100-154 peptide.
Furthermore, CTL responses were assessed in HLA-A2/K^b transgenic mice (Sherman strain) following s.c. immunization with gp100-154 peptide alone, conjugated to hPER1 or AntpHD with or without linker FVYVW. Mice were boosted on days 21 and 42 and splenocytes from vaccinated animals were harvested on day 63 and tested for CTL activity after 5 days of restimulation in vitro.

GRRHHRRSKAKRSRKTWGQYWQV
peptide-specific CTL responses [1]: can be induced | 154-specific IFN-γ responses (ELISPOT) [2]: can be induced | CTL responses against gp100-154 [3]: a weak response was observed
